Test: Pharmacokinetic (PK) test in mice
Assay type: in vivo, male mice (balb/c)
Procedure: The clarified solutions obtained by dissolving the test compound were administered to male mice (balb/c) via tail vein injection and oral gavage, respectively. After administration of the test compound, blood was collected from the mandibular vein at 0.083, 0.25, 0.5, 1, 2, 4, 8, and 24 hours for the intravenous injection group (1 mg/kg) and at 0.25, 0.5, 1, 2, 4, 6, 8, and 24 hours for the oral gavage group (3 mg/kg), followed by centrifugation to obtain plasma. Plasma concentrations were determined by the LC-MS/MS method, and relevant pharmacokinetic parameters were calculated using WinNonlin™ Version 6.3 pharmacokinetic software with non-compartmental model linear-log trapezoidal method. PK test results of the compound of formula (I) in mice

Cn1cc(-c2cn3nccc3c(-c3cnn([C@]4(CC#N)CC5(C[C@H](C#N)C5)C4)c3)n2)cn1 (some centres unmarked) [Compound of formula (I)]
exposure (in words): high exposure | oral bioavailability (in words): good oral bioavailability

Reference: patent EP4711367A1, “PYRAZOLOPYRAZINE COMPOUND AND METHOD FOR PREPARING CRYSTAL FORM THEREOF” (CMS Research & Development Pte. Ltd., priority 2023, dated 2024)
